Measurements reported in PubChem BioAssay (NCI).
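Where inhibition never reached the appropriate level, the endpoint shown equals the highest concentration tested. Otherwise, values were interpolated linearly from a five-concentration, 48-hour dose response in 96-well plates. The concentration for 50% growth inhibition is given as GI50. The concentration for full growth arrest is given as TGI.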

What was measured:
Assay in all cases: NCI anticancer screen, dose series, 48 h
SN12C renal = tested on: SN12C renal
COLO 205 colon = tested on: COLO 205 colon
LOX IMVI melanoma = tested on: LOX IMVI melanoma
MDA-MB-231 breast = tested on: MDA-MB-231 breast
K-562 leukemia = tested on: K-562 leukemia
A549 NSCLC = tested on: A549 NSCLC
HCT-15 colon = tested on: HCT-15 colon
PC-3 prostate = tested on: PC-3 prostate
HT29 colon = tested on: HT29 colon
KM12 colon = tested on: KM12 colon
T-47D breast = tested on: T-47D breast
SF-268 CNS = tested on: SF-268 CNS
NCI/ADR-RES ovarian = tested on: NCI/ADR-RES ovarian
UO-31 renal = tested on: UO-31 renal
MDA-MB-468 breast = tested on: MDA-MB-468 breast
OVCAR-4 ovarian = tested on: OVCAR-4 ovarian
MDA-MB-435 = tested on: MDA-MB-435
OVCAR-5 ovarian = tested on: OVCAR-5 ovarian
HCC-2998 colon = tested on: HCC-2998 colon
HCT-116 colon = tested on: HCT-116 colon
U251 CNS = tested on: U251 CNS
RXF 393 renal = tested on: RXF 393 renal
HOP-62 NSCLC = tested on: HOP-62 NSCLC
DU-145 prostate = tested on: DU-145 prostate
MCF7 breast = tested on: MCF7 breast
UACC-257 melanoma = tested on: UACC-257 melanoma
NCI-H522 lung = tested on: NCI-H522 lung
MALME-3M melanoma = tested on: MALME-3M melanoma
CCRF-CEM leukemia = tested on: CCRF-CEM leukemia
NCI-H226 lung = tested on: NCI-H226 lung
M14 melanoma = tested on: M14 melanoma
SK-OV-3 ovarian = tested on: SK-OV-3 ovarian
OVCAR-8 ovarian = tested on: OVCAR-8 ovarian
TK-10 renal = tested on: TK-10 renal
IGROV1 ovarian = tested on: IGROV1 ovarian
EKVX NSCLC = tested on: EKVX NSCLC
NCI-H23 lung = tested on: NCI-H23 lung
SK-MEL-2 melanoma = tested on: SK-MEL-2 melanoma
BT-549 breast = tested on: BT-549 breast
786-0 renal = tested on: 786-0 renal
SF-295 CNS = tested on: SF-295 CNS
MOLT-4 leukemia = tested on: MOLT-4 leukemia
A498 renal = tested on: A498 renal
SNB-19 CNS = tested on: SNB-19 CNS
NCI-H460 lung = tested on: NCI-H460 lung
OVCAR-3 ovarian = tested on: OVCAR-3 ovarian
SNB-75 CNS = tested on: SNB-75 CNS
HS 578T breast = tested on: HS 578T breast
CAKI-1 renal = tested on: CAKI-1 renal
SK-MEL-5 melanoma = tested on: SK-MEL-5 melanoma
ACHN renal = tested on: ACHN renal
SW-620 colon = tested on: SW-620 colon
SF-539 CNS = tested on: SF-539 CNS
UACC-62 melanoma = tested on: UACC-62 melanoma
HOP-92 NSCLC = tested on: HOP-92 NSCLC
SR leukemia = tested on: SR leukemia
SK-MEL-28 melanoma = tested on: SK-MEL-28 melanoma
RPMI-8226 leukemia = tested on: RPMI-8226 leukemia
HL-60(TB) leukemia = tested on: HL-60(TB) leukemia

OC(c1ccccc1)(c1ccccc1)C1CCN(c2ccc3nnc(Cl)n3n2)CC1
GI50 (SN12C renal): 17.5 µM
TGI (SN12C renal): 40 µM
GI50 (COLO 205 colon): 18.3 µM
TGI (COLO 205 colon): 46.2 µM
GI50 (LOX IMVI melanoma): 15.3 µM
TGI (LOX IMVI melanoma): 29 µM
GI50 (MDA-MB-231 breast): 15.4 µM
TGI (MDA-MB-231 breast): 30.4 µM
GI50 (K-562 leukemia): 14 µM
TGI (K-562 leukemia): > 100 µM
GI50 (A549 NSCLC): 18 µM
TGI (A549 NSCLC): > 100 µM
GI50 (HCT-15 colon): 15.7 µM
TGI (HCT-15 colon): 54.2 µM
GI50 (PC-3 prostate): 8.75 µM
TGI (PC-3 prostate): 62.2 µM
GI50 (HT29 colon): 16.9 µM
TGI (HT29 colon): 36.4 µM
GI50 (KM12 colon): 16.2 µM
TGI (KM12 colon): 42.5 µM
GI50 (T-47D breast): 20.6 µM
TGI (T-47D breast): > 100 µM
GI50 (SF-268 CNS): 26.3 µM
TGI (SF-268 CNS): > 100 µM
GI50 (NCI/ADR-RES ovarian): 18 µM
TGI (NCI/ADR-RES ovarian): 63.3 µM
GI50 (UO-31 renal): 11 µM
TGI (UO-31 renal): 29.1 µM
GI50 (MDA-MB-468 breast): 13 µM
TGI (MDA-MB-468 breast): 35.4 µM
GI50 (OVCAR-4 ovarian): 23.2 µM
TGI (OVCAR-4 ovarian): > 100 µM
GI50 (MDA-MB-435): 19.5 µM
TGI (MDA-MB-435): 43.3 µM
GI50 (OVCAR-5 ovarian): 17.5 µM
TGI (OVCAR-5 ovarian): 45.2 µM
GI50 (HCC-2998 colon): 15.5 µM
TGI (HCC-2998 colon): 29.9 µM
GI50 (HCT-116 colon): 14.1 µM
TGI (HCT-116 colon): 39.1 µM
GI50 (U251 CNS): 18 µM
TGI (U251 CNS): 39.6 µM
GI50 (RXF 393 renal): 14.5 µM
TGI (RXF 393 renal): 29.4 µM
GI50 (HOP-62 NSCLC): 44 µM
TGI (HOP-62 NSCLC): > 100 µM
GI50 (DU-145 prostate): 24 µM
TGI (DU-145 prostate): > 100 µM
GI50 (MCF7 breast): 16.2 µM
TGI (MCF7 breast): 44.2 µM
GI50 (UACC-257 melanoma): 18.5 µM
TGI (UACC-257 melanoma): 37.9 µM
GI50 (NCI-H522 lung): 15.6 µM
TGI (NCI-H522 lung): 49.1 µM
GI50 (MALME-3M melanoma): 19.5 µM
TGI (MALME-3M melanoma): 33.9 µM
GI50 (CCRF-CEM leukemia): 12.8 µM
TGI (CCRF-CEM leukemia): > 100 µM
GI50 (NCI-H226 lung): 14.5 µM
TGI (NCI-H226 lung): 38.9 µM
GI50 (M14 melanoma): 17.4 µM
TGI (M14 melanoma): 34.9 µM
GI50 (SK-OV-3 ovarian): 42.1 µM
TGI (SK-OV-3 ovarian): > 100 µM
GI50 (OVCAR-8 ovarian): 25.7 µM
TGI (OVCAR-8 ovarian): 76.9 µM
GI50 (TK-10 renal): 22.9 µM
TGI (TK-10 renal): 62.5 µM
GI50 (IGROV1 ovarian): 16.4 µM
TGI (IGROV1 ovarian): 41.9 µM
GI50 (EKVX NSCLC): 15.5 µM
TGI (EKVX NSCLC): 54.3 µM
GI50 (NCI-H23 lung): 16.8 µM
TGI (NCI-H23 lung): 37.3 µM
GI50 (SK-MEL-2 melanoma): 16.5 µM
TGI (SK-MEL-2 melanoma): 32.8 µM
GI50 (BT-549 breast): 13.9 µM
TGI (BT-549 breast): 29.8 µM
GI50 (786-0 renal): 25 µM
TGI (786-0 renal): 71.8 µM
GI50 (SF-295 CNS): 17 µM
TGI (SF-295 CNS): 54.1 µM
GI50 (MOLT-4 leukemia): 4.18 µM
TGI (MOLT-4 leukemia): 31.6 µM
GI50 (A498 renal): 16.8 µM
TGI (A498 renal): 32.6 µM
GI50 (SNB-19 CNS): 36.3 µM
TGI (SNB-19 CNS): > 100 µM
GI50 (NCI-H460 lung): 14.1 µM
TGI (NCI-H460 lung): 32.6 µM
GI50 (OVCAR-3 ovarian): 21.1 µM
TGI (OVCAR-3 ovarian): 65.7 µM
GI50 (SNB-75 CNS): 14.6 µM
TGI (SNB-75 CNS): 36.9 µM
GI50 (HS 578T breast): 22 µM
TGI (HS 578T breast): 53.2 µM
GI50 (CAKI-1 renal): 15.6 µM
TGI (CAKI-1 renal): 81.3 µM
GI50 (SK-MEL-5 melanoma): 13.7 µM
TGI (SK-MEL-5 melanoma): 26.6 µM
GI50 (ACHN renal): 14.2 µM
TGI (ACHN renal): 44.8 µM
GI50 (SW-620 colon): 25 µM
TGI (SW-620 colon): 67.8 µM
GI50 (SF-539 CNS): 17.2 µM
TGI (SF-539 CNS): 38.7 µM
GI50 (UACC-62 melanoma): 14.6 µM
TGI (UACC-62 melanoma): 30.4 µM
GI50 (HOP-92 NSCLC): 10.8 µM
TGI (HOP-92 NSCLC): 29 µM
GI50 (SR leukemia): 10.9 µM
TGI (SR leukemia): 47.5 µM
GI50 (SK-MEL-28 melanoma): 18.3 µM
TGI (SK-MEL-28 melanoma): 43 µM
GI50 (RPMI-8226 leukemia): 9.29 µM
TGI (RPMI-8226 leukemia): 50.8 µM
GI50 (HL-60(TB) leukemia): 12.7 µM
TGI (HL-60(TB) leukemia): 42.9 µM
